The text below walks through data of BindingDB's records for PubMed 11082457 (Centre De Recherches De Croissy, 2000).

“And” between values parts separate entries of the source, which are not always exact repeats. Equal values may be shown once.

In general, Ki refers to a measure of affinity in units of concentration, obtained from inhibition or displacement. Higher therefore signals weaker binding.

Test [1] addresses T1, Alpha-2C adrenergic receptor (Homo sapiens, UniProt P18825).
T1 sequence (P18825 whole entry): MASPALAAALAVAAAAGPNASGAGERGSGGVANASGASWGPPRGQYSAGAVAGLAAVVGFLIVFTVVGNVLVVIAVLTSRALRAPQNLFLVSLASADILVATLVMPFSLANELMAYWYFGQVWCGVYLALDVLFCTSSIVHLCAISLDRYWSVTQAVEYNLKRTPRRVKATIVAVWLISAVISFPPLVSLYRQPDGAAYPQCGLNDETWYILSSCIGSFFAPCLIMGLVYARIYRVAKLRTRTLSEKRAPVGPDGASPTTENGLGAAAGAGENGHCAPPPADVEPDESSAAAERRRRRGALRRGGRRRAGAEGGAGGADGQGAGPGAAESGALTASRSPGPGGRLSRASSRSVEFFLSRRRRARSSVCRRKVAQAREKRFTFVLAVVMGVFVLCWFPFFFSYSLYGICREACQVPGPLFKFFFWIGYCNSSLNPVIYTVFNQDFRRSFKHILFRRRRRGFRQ

Test [2] addresses T2, Amine oxidase [flavin-containing] A (Rattus norvegicus, UniProt P21396).
T2 sequence (P21396 whole entry): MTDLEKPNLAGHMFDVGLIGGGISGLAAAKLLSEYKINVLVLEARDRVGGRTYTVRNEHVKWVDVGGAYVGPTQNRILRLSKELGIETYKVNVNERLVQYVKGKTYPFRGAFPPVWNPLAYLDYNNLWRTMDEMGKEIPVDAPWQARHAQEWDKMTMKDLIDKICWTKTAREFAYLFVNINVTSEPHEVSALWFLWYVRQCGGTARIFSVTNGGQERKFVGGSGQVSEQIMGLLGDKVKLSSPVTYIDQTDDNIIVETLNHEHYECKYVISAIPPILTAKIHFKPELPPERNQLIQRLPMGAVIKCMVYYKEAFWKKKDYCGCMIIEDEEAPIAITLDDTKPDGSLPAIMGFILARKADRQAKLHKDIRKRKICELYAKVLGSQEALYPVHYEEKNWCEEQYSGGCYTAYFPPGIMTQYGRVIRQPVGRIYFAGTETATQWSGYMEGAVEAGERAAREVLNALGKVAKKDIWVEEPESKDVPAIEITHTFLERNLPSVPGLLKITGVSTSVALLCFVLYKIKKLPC

Test [3] addresses Beta-2 adrenergic receptor (Homo sapiens, UniProt P07550).
For test [4], the target named is Beta-1 adrenergic receptor (Homo sapiens, UniProt P08588).
Sequence of Beta-1 adrenergic receptor (P08588 whole entry): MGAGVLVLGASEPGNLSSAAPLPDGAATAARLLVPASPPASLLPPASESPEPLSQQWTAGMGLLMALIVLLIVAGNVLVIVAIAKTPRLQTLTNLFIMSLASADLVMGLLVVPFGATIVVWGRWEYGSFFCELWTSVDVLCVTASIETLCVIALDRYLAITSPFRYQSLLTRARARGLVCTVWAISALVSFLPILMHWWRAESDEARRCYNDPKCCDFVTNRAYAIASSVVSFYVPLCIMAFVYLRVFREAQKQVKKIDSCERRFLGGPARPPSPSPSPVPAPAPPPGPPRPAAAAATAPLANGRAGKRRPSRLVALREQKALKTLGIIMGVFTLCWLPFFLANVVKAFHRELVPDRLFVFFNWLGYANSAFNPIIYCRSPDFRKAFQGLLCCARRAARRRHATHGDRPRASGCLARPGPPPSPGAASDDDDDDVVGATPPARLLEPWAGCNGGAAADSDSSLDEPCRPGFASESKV
Test [5] concerns the target T3, Alpha-2A adrenergic receptor (Homo sapiens, UniProt P08913).
T3 sequence (P08913 whole entry): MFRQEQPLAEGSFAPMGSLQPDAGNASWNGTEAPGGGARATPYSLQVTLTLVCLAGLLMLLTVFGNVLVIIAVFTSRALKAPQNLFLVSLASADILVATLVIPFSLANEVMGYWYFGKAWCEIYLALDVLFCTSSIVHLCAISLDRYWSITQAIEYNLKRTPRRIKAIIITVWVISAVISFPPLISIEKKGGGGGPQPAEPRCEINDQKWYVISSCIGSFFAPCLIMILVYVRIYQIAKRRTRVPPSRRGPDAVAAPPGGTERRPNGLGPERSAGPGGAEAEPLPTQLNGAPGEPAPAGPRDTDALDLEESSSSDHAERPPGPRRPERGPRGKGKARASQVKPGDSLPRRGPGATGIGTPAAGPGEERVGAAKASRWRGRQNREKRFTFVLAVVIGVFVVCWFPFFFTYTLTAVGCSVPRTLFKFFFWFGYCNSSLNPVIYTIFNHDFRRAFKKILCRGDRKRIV

Test [6] has as its target T4, Alpha-2A adrenergic receptor [16-465] (Rattus norvegicus, UniProt P22909).
T4 construct: 16-465
T4 sequence (P22909 whole entry): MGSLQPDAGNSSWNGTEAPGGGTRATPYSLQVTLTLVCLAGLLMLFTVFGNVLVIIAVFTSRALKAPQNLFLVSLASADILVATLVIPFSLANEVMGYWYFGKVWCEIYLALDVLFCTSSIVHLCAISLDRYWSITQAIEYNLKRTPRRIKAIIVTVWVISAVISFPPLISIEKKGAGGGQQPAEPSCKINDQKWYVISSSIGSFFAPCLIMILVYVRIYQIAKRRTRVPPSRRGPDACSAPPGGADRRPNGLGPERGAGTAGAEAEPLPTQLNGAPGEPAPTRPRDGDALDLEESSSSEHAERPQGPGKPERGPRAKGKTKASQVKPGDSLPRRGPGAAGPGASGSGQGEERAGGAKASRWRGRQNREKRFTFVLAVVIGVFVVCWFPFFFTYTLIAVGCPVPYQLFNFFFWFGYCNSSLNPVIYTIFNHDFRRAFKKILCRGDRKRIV

Sequence of Beta-2 adrenergic receptor (P07550 whole entry): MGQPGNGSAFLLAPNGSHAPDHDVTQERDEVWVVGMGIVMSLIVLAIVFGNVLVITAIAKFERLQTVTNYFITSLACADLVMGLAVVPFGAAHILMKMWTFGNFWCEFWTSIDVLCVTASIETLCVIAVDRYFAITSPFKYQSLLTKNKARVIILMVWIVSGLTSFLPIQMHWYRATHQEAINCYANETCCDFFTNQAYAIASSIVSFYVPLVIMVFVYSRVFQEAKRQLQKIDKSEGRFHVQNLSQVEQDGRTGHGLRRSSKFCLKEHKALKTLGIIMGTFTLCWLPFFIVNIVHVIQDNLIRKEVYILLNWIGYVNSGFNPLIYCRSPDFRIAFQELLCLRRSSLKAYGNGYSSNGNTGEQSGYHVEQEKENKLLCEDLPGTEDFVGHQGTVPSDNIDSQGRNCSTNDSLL

Regarding `Cc1cccc([C@@H](C)c2cnc[nH]2)c1C`, the Ki is 15.1 nM and 2.51 nM in test [1]; 1000 nM in test [2].
Turning to `NC1=NC2(CCc3ccccc3C2)CO1` (configuration not stated) [S18616], the Ki in test [3] is 1000 nM; in test [4], 1000 nM; in test [5] it was 0.562 nM and 0.631 nM and 0.316 nM; in test [2] it was 1000 nM; in test [6], 0.251 nM.
